The values that follow come from patent publication US20090181981A1, “CRYSTALLINE (R)-2-(4-CYCLOPROPANESULPHONYL-PHENYL)-N-PYRAZIN-2-YL-3-(TETRAHYDROPYRAN-4-YL)-PROPIONAMIDE” (priority 2008, published 2009).

The subject of data set [1] is Glucokinase (GK). The conditions noted are these: WO2004/072031; cited from earlier work.
The target in data set [2] is T1, Glucokinase (GK) (Homo sapiens, UniProt P35557).
T1 sequence (P35557 1-465): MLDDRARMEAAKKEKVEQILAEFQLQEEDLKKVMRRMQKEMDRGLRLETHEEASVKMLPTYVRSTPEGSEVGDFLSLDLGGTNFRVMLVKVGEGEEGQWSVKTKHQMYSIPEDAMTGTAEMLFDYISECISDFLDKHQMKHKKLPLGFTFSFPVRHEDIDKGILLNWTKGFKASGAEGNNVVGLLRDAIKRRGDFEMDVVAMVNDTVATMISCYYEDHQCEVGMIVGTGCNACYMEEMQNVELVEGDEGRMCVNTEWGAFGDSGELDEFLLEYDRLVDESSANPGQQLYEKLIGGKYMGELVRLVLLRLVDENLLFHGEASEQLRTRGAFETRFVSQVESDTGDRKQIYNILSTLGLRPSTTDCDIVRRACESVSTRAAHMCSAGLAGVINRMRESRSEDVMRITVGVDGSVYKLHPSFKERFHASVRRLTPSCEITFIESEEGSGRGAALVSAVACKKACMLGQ
The conditions noted are these: WO2004/072031; cited from earlier work.

The nature of data set [3]: Glass transition temperature / thermal stability of the solid. It counts as physicochemical. The following applies: as evidenced by low glass transition temperature. An excerpt: (§1) Glucokinase is important in regulation of plasma glucose levels. It is thought that GK activators increase a body's sensitivity to glucose. Consequently, GK activators are effective in the treatment of hyperglycemia, insulin resistance, and diabetes, particularly in type II diabetes. […] (WO2004/072031) However, amorphous CPTP is not suitable for pharmaceutically elegant drug formulation.

Data set [4] is described as follows: Hygroscopicity and storage at ambient temperature. It counts as physicochemical. On the procedure:
as §1
(§2) Crystalline CPTP has an onset of melting as measured by differential scanning calorimetry of 156° C., which renders it acceptable for standard industrial processes such as milling. […]

The nature of data set [5]: pKa by photometric titration. The conditions noted are these: determined by photometric titration. It counts as physicochemical. The text has this:
Salt formation was also extensively investigated. However, formation of isolable CPTP salts is hampered by the low pK (pKa1=0.17, determined by photometric titration) of CPTP.

The nature of data set [6]: Crystalline CPTP stability summary (storage at controlled temperature and relative humidity). It counts as physicochemical. The conditions noted are these: for Chiral Purity: chiral HPLC area percent; for Achiral Purity: total impurities by achiral HPLC. On the procedure:
as §2

[7] abbreviates: 25° C. 60% relative humidity, 1 month.
Setting [8] is: 25° C. 60% relative humidity, 3 months.
The mark [9] stands for this setting: 25° C. 60% relative humidity, Initial.
[10] abbreviates: 40° C. 60% relative humidity, 1 Month.
The mark [11] stands for this setting: 40° C. 60% relative humidity, 3 Months.
[12] abbreviates: 40° C. 60% relative humidity, Initial.

Take `O=C(Nc1cnccn1)[C@H](CC1CCOCC1)c1ccc(S(=O)(=O)C2CC2)cc1` [Amorphous CPTP, R-2-(4-cyclopropanesulfonyl-phenyl)-N-pyrazin-2-yl-3-(tetrahydropyran-4-yl)-propionamide]: in the data set on Glucokinase (GK) [1], the “activity in in-vivo GK assay” value is “active”. Moreover, on Glucokinase (GK) [2], the “activity in in-vitro GK assay” value is on record as “active”. In data set [3], the thermal stability entry is given as “limited thermal stability”. The hygroscopicity entry in data set [4] is recorded as “is hygroscopic”.

`O=C(Nc1cnccn1)[C@H](CC1CCOCC1)c1ccc(S(=O)(=O)C2CC2)cc1` [CPTP, R-2-(4-cyclopropanesulfonyl-phenyl)-N-pyrazin-2-yl-3-(tetrahydropyran-4-yl)-propionamide] registered a pKa1 in data set [5] of 0.17.

As for `O=C(Nc1cnccn1)[C@H](CC1CCOCC1)c1ccc(S(=O)(=O)C2CC2)cc1` [Crystalline CPTP, R-2-(4-cyclopropanesulphonyl-phenyl)-N-pyrazin-2-yl-3-(tetrahydropyran-4-yl)-propionamide], in data set [4] (stored at ambient temperature), the degradation on storage entry is listed as “minor or no degradation”; the “hygroscopicity / water uptake” value is “remains anhydrous and is not hygroscopic”. Also, in data set [6] (setting [7]), the Appearance entry was “White”, the Assay was 99.9 % w/w, the Total Impurities was 0.18% and the Water is less than 0.10 % w/w. Further, in data set [6] (setting [7]), the “Chiral Purity” value is reported as 100 % a/a and the “Achiral Purity” value amounted to 0.18 % a/a. Further, in data set [6] (setting [8]), the Appearance result is given as “White”, the Assay is reported as 99.6 % w/w, the Total Impurities amounted to 0.23% and the Water is listed as less than 0.01 % w/w. Besides, in data set [6] (setting [8]), the “Chiral Purity” value came out at 100 % a/a and the “Achiral Purity” value was 0.23 % a/a. In addition, in data set [6] (setting [9]), the Appearance result is listed as “White”, the Assay stood at 100.3 % w/w, the Total Impurities amounted to 0.25% and the Water is recorded as less than 0.07 % w/w. In data set [6] (setting [9]), the “Chiral Purity” value came out at 100 % a/a and the “Achiral Purity” value is given as 0.25 % a/a. Further, in data set [6] (setting [10]), the Appearance result is reported as “White”, the Assay worked out at 100.1 % w/w, the Total Impurities stood at 0.2% and the Water is given as less than 0.10 % w/w. Moreover, in data set [6] (setting [10]), the “Chiral Purity” value is 100 % a/a and the “Achiral Purity” value amounted to 0.20 % a/a. In data set [6] (setting [11]), the Appearance result is recorded as “White”, the Assay is given as 99.3 % w/w, the Total Impurities stood at 0.25% and the Water is less than 0.01 % w/w. For the same molecule, in data set [6] (setting [11]), the “Chiral Purity” value came to 100 % a/a and the “Achiral Purity” value came to 0.25 % a/a. Besides, in data set [6] (setting [12]), the Appearance result was “White”, the Assay is 100.3 % w/w, the Total Impurities worked out at 0.25% and the Water is on record as less than 0.07 % w/w. In data set [6] (setting [12]), the “Chiral Purity” value was 100 % a/a and the “Achiral Purity” value is reported as 0.25 % a/a.
